Results from patent US20240238380A1, “COMPOSITION FOR COMBINATION THERAPY COMPRISING GROWTH DIFFERENTIATION FACTOR-15 VARIANT AND GLUCAGON-LIKE PEPTIDE-1 RECEPTOR AGONIST” (YUHAN CORPORATION, priority 2021, published 2024).
Marks after values point to notes of the source that are not given here.

Key:
Type in all cases: in vivo
[1] = Anti-obesity effect alone and in combination with semaglutide in diet-induced obese (DIO) mice (Example 4); conditions: for Change in body weight (%) vs. day 0, Maximum efficacy: 8 weeks
From the text: Diet-induced obese (DIO) mice, obtained by feeding mice with high-fat food, are characterized by obesity, hyperglycemia, and insulin resistance. Diet-induced obese mice (Taconic, USA) resulting from feeding C57BL/6N mice with high-fat food (60 kcal % fat, Research Diets, Cat #D12492, USA) for 8 weeks were purchased from Raon Bio (Animal Inc., Republic of Korea). The diet-induced obese mice were additionally fed with 60% high-fat food for 5 weeks after arrival, and then used in the present test. On the day before drug treatment, the mice were grouped based on the average body weight of individual mice (n=6 per group), after which 10 and 30 nmol/kg of FM9-6+Fc_hole alone, 10 and 30 nmol/kg of semaglutide (long-acting GLP-1 derivative, SEQ ID NO: 114) alone as a control drug, and FM9-6+Fc_hole and semaglutide were administered subcutaneously every 2 days (Q2D) for a total of 8 weeks in a combination of 10+10 and 30+30 nmol/kg. The semaglutide that was used in the test was Ozempic® (semaglutide) from Novo NorDisk. Here, for vehicle treatment, DPBS (Dulbecco's phosphate-buffered saline, Gibco, USA) was subcutaneously administered every 2 days (Q2D). Body weight was measured every 2 days from the first day of drug treatment to day 54, and the results thereof are shown in Table 4 below.

[2] = Inhibitory effect on gastric emptying (acetaminophen exposure) in normal rats (Example 8); conditions: for AUClast of acetaminophen (μg · min/mL), 3 hr / AUClast of acetaminophen (μg · min/mL), 24 hr / AUClast of acetaminophen (μg · min/mL), 72 hr: rats; for AUClast of acetaminophen (μg · min/mL), 3 hr: acetaminophen 3 hr after dose; for AUClast of acetaminophen (μg · min/mL), 24 hr: acetaminophen 24 hr after dose; for AUClast of acetaminophen (μg · min/mL), 72 hr: acetaminophen 72 hr after dose
Protocol: Therefore, this example was performed to investigate the inhibitory effect on gastric emptying when the novel long-acting GDF15 fusion protein was administered at the doses equal to the effective dose, higher than the maximum effective dose, or in combination with a GLP-1 receptor agonist to rats. 6-week-old male SD rats (Orient Bio, Republic of Korea) were purchased from Hallym Lab. Animal Inc., Republic of Korea. Animals were acclimated for 7 days. On the day of drug administration, the rats were grouped based on the average body weight of individual rats (n=5 per group) and fasted for at least 6 hours before oral administration of acetaminophen. Then, 0.1, 1, and 10 nmol/kg of FM9-6+Fc_hole, 10 nmol/kg of semaglutide (long-acting GLP-1 derivative, SEQ ID NO: 114), and combination of FM9-6+Fc_hole and semaglutide (1+10 nmol/kg) were subcutaneously administered. The semaglutide was Ozempic® (semaglutide) from Novo NorDisk. As a negative control drug, D-PBS (normal vehicle) was subcutaneously administered, and as a positive control drug, 30 mg/kg of loperamide was orally administered 45 minutes before acetaminophen administration. On 3, 24 and 72 hours after a single dose of the test articles, acetaminophen was orally administered at 100 mg/kg to rats, and blood samples were collected before and at 30, 60, 90, 120 and 150 minutes after acetaminophen administration. The plasma concentration of acetaminophen was analyzed, and the pharmacokinetic profiles and the systemic exposures of acetaminophen were compared to evaluate the inhibitory effect on gastric emptying among the groups.

[3] = Pharmacokinetics of long-acting GDF15 fusion protein (dimer) in C57BL/6N mice; conditions: 1 mg/kg subcutaneous
Protocol: 6-week-old male C57BL/6N mice (Orient Bio, Republic of Korea) were purchased from Hallym Lab. Animal Inc., Republic of Korea. Animals were acclimated for 7 days, and on the day of drug administration, the mice were grouped based on the average body weight of individual mice (n=3 per blood sampling time per group). Then, FM9-4+Fc_hole, FM9-6+Fc_hole, FM11-4+Fc_hole, and FM11-6+Fc_hole were subcutaneously administered at 1 mg/kg to each group, and blood samples were collected at 4, 24, 48, 72, 96, 120, 168, and 240 hours after administration. Determination of active GDF15 in serum was achieved by enzyme-linked immunosorbent assay (ELISA), and pharmacokinetic parameters of each long-acting GDF15 fusion protein (dimer) are shown in Table 3 below.

FM9-6 + Fc_hole: long-acting GDF15 fusion protein (dimer): GDF15 ΔN2, S64R, IgG1 Fc_knob/Fc_hole, linker GS(EAAAK)5; SEQ ID NOs: 103 and 47
Change in body weight (%) vs. day 0, Maximum efficacy ([1]; 10 nmol/kg s.c. Q2D): −34.57 (On Day 54)**** %
Change in body weight (%) vs. day 0, Efficacy on Day 54 ([1]; 10 nmol/kg s.c. Q2D): −34.57**** %
Change in body weight (%) vs. day 0, Maximum efficacy ([1]; 30 nmol/kg s.c. Q2D): −35.07 (On Day 54)**** %
Change in body weight (%) vs. day 0, Efficacy on Day 54 ([1]; 30 nmol/kg s.c. Q2D): −35.07**** %
AUClast of acetaminophen (μg · min/mL), 3 hr ([2]; 0.1 nmol/kg s.c. single dose): 1873.02 µg·min/mL
AUClast of acetaminophen (μg · min/mL), 24 hr ([2]; 0.1 nmol/kg s.c. single dose): 2652.42 µg·min/mL
AUClast of acetaminophen (μg · min/mL), 72 hr ([2]; 0.1 nmol/kg s.c. single dose): 3054.78 µg·min/mL
AUClast of acetaminophen (μg · min/mL), 3 hr ([2]; 1 nmol/kg s.c. single dose): 2615.40 µg·min/mL
AUClast of acetaminophen (μg · min/mL), 24 hr ([2]; 1 nmol/kg s.c. single dose): 1878.30 µg·min/mL
AUClast of acetaminophen (μg · min/mL), 72 hr ([2]; 1 nmol/kg s.c. single dose): 3526.86 µg·min/mL
AUClast of acetaminophen (μg · min/mL), 3 hr ([2]; 10 nmol/kg s.c. single dose): 1497.84 µg·min/mL
AUClast of acetaminophen (μg · min/mL), 24 hr ([2]; 10 nmol/kg s.c. single dose): 2385.36 µg·min/mL
AUClast of acetaminophen (μg · min/mL), 72 hr ([2]; 10 nmol/kg s.c. single dose): 3100.59 µg·min/mL
gastric emptying (in words) ([2]; rats, 0.1, 1, and 10 nmol/kg, 3, 24, and 72 hours after administration): did not affect gastric emptying
AUClast [3]: 939.30872 µg·h/mL
CL/F [3]: 21.8 mL/day/kg
T1/2,app [3]: 84.28 h
Tmax [3]: 24 h
Cmax ([3]; active GDF15 in serum by ELISA): 7581.92 ng/mL
